Measured values from a melting point compilation (Tetko et al.; mined from patent text by program, amines drawn as free bases though some values may be those of a salt).

| SMILES | melting point [°C] |
| --- | --- |
| C=CCc1ccc(OCC(O)CO)c(OC)c1 (stereo unspecified) | 77 to 79 |
| COC(=O)C(C)(C)Oc1ccc2c(=O)n(CC(C)C)c(CNC(=O)OC(C)(C)C)c(-c3ccccc3)c2c1 | 207 to 209 |
| CC(=O)OC1CSC(O)C(OC(C)=O)C1OC(C)=O (stereo unspecified) | 115 |
| CCOC(=O)/C(=N\O[C@@H]1CCCC[C@@H]1C)c1csc(N)n1 (relative stereo) | 123 to 126 |
| C=CCSc1nnc(Cl)c(C)c1C | 51 to 53 |
| CCCc1nc2c(C#N)ncc(C)c2[nH]1 | 239 to 242 |
| COc1ncnc(Cl)c1[N+](=O)[O-] | 65 |
| CC(OS(=O)(=O)C(F)(F)F)=C(C(=O)OCc1ccccc1)N1C(=O)[C@@H](N2C(=O)c3ccccc3C2=O)[C@H]1COS(C)(=O)=O | 51 to 55 |
| CC(=O)C(C)(N=Nc1ccc(C(O)(C(F)(F)F)C(F)(F)F)cc1)C(N)=O (stereo unspecified) | 148 to 152 |
| N#Cc1cccc(CSc2nnc(-c3ccnc(NC(=O)CCc4ccccc4)c3)o2)c1 | 153 to 154 |
| Clc1cccc2cc3cccc(Cl)c3cc12 | 155 |
| Cn1c(COCCn2cnc3c(N)nc4ccccc4c32)cc2ccccc21 | 243 to 245 |
| CCCCCCCCCCC(=O)c1ccncc1 | 51 to 52 |
| O=C(CNC(=O)c1ccc(C(=O)C=C(c2cc(Cl)cc(C(F)(F)F)c2)C(F)(F)F)c2ccccc12)NCC(F)(F)F | 174 to 177 |
| Nc1cc(=O)n(Cc2ccc(Cl)c(Cl)c2)[nH]1 | 159 |
| Cc1cnc2nc(C(F)(F)F)[nH]c(=O)c2c1 | 270 to 272 |
| COC(=O)c1cccc2[nH]c(Sc3cccc4c(=O)cc[nH]c34)nc12 | > 250 |
| OC[C@H](O)COc1ccccc1OCC1CC1 | 95 to 97 |
| Cc1ccc(S(=O)(=O)NC(Cc2ccccc2)C(=O)NCCCCC(C(=O)O)N(CC(C)C)S(=O)(=O)c2ccc(C)cc2)cc1 (stereo unspecified) | 301 to 306 |
| O=S1(=O)NC(c2ccccc2)Nc2ccccc21 (stereo unspecified) | 126 to 128 |
| Nc1ncnc2ncn(CCO)c12 | 132 to 133 |
| NNc1cc2c(nn1)CCCCCC2 | 145 to 148 |
| COc1ccccc1N1CCN(CCn2cnc3c(c2=O)CN(Cc2ccccc2)CC3)CC1 | 200 |
| CCOC(=O)C(COC(=O)COc1ccc(NC(=O)c2ccccc2-c2ccc(C(F)(F)F)cc2)c(C(=O)N(C)C)c1)(C(=O)OCC)c1ccccc1 | 132 to 138 |
| COc1ccc(-c2ccc3cnc(Nc4cc5c(cc4F)CCC(=O)N5)nn23)cn1 | 295 |

| SMILES | melting point [°C] |
| --- | --- |
| Cc1[nH]cnc1/C=C1\CCc2sc3ccccc3c2C1=O | 220 to 223 |
| CC(C)(C)c1ccc(OCC(O)CCCl)cc1 (stereo unspecified) | 45 to 47 |
| CCOC(=O)/C=C/c1cn(C)nc1OCc1ccc(OCc2nc(-c3ccco3)oc2C)c(OC)c1 | 135 to 136 |
| OCC1OC(n2cnc3c(Cl)ncc(F)c32)C(O)C1O (stereo unspecified) | 187 to 189 |
| O=Cn1cc(Cl)c(-c2cccc(Cl)c2Cl)c1 | 130 to 131 |
| CCCCCCCCCCCCC(=O)c1c[nH]c(C(=O)OC)c1 | 92 to 93 |
| C#CCOc1ccc(/C=C/c2nc3ccccc3c(=O)o2)cc1OC | 177 to 178 |
| Fc1ccccc1C1CCN(Cc2ccccc2)CCN1Cc1ccccc1 (stereo unspecified) | 82 to 83 |
| CCOc1nn(-c2ccc(C(F)(F)F)cn2)cc1CCOc1cccc(OC(C)(C)C(=O)O)c1 | 89 to 90 |
| COc1ccc(Cc2cnc(N[N+](=O)[O-])[nH]c2=O)cn1 | 184 to 186 |
| CCCCc1oc2ccc(-c3nc(C)no3)cc2c1C(=O)c1ccc(OCCCBr)cc1 | 85 to 87 |
| CC(C)=NOCc1nc2c(N)nc(C)c(C)c2n1CCCCNC(=O)c1ccccc1 | 206 to 208 |
| Oc1ccc2c(-c3ccc4c(Br)c(O)ccc4c3)noc2c1 | 275 to 277 |
| COC(=O)CCNc1ccccc1CNC(=O)C1Cc2ccccc2N1S(=O)(=O)c1ccc(I)cc1 (stereo unspecified) | 67 to 75 |
| O=S(=O)(CC1(O)CN2CCC1CC2)c1ccc(-c2ccccc2)cc1 (stereo unspecified) | 203 to 205 |
| C=Cc1nc(C#N)c(C#N)[nH]1 | 168 to 170 |
| COC(=O)c1ccc(OCCNC(=O)C2Cc3ccccc3N2S(=O)(=O)c2ccc(-c3ccc(F)cc3)cc2)c(C)c1 (stereo unspecified) | 81 to 85 |
| Cc1cc(SCc2ccc(OCc3ccc(F)cc3F)cc2)ccc1OCC(=O)O | 139 to 141 |
| CC(C)(C)n1nc2c(S)ncnc2c1O | > 300 |
| O=C1N=NC(=O)c2c1[nH]c1cccc(Br)c21 | > 260 |
| COc1ccc(N2CCN(CCC3OCCc4cc([Si](C)(C)C)ccc43)CC2)cc1 (stereo unspecified) | 78 to 80 |
| COc1ccc(-n2cnc3ccc(-c4nnc(CCc5cccc(C(F)(F)F)c5)o4)cc32)cc1 | 159 to 160 |
| Cc1ccc(C=C2C=C(C(C)(C)C)C=C(C(C)(C)C)C2=O)cc1C | 214 to 217 |
| CC(C)(O)[C@H](N)c1ccccc1 | 49 |

The remaining lines, values ahead:

| melting point [°C] | SMILES |
| --- | --- |
| 217 to 218 | Cc1cc(C(=O)O)ccc1NC(=O)C(CS)Cc1ccccc1 (stereo unspecified) |
| 269 to 270 | CCn1cc(C(=O)O)c(=O)cc1-c1ccc2c(c1)OCO2 |
| 213 to 215 | O=c1cc(CCO)c2ccccc2[nH]1 |
| 155 to 157 | O=C1c2cccc(-c3ccccc3)c2C2NCCN12 (stereo unspecified) |
| 141 to 142 | CC(C)(C)C(F)(F)c1ccc(C[C@@H](C(=O)O)[C@@H](O)c2cccc(Cl)c2)cc1 (racemic) |
| 132 to 134 | COC(=O)C(O)=Cc1ncc(Cc2ccc(F)cc2)cn1 |
| 136 to 139 | Cc1cc(Oc2cc(C)c([N+](=O)[O-])cn2)n[nH]1 |
| 86 to 87 | COc1ccc2c(=O)n3c(cc2c1)SCCC3 |
| 259 to 261 | O=C(O)C1=CC2(CCSCC2)Oc2ccc([N+](=O)[O-])cc21 |
| 195 to 197 | COc1cn(-c2ccc(N3CCC(F)(F)C3)cc2F)nc(-c2ccnn2-c2ccccc2)c1=O |
| 42 to 43 | c1ccc(OCC2CCNCC2)cc1 |
| 165 to 168 | COc1cc(OC)c2c(C)c3n(c(=O)c2c1)CCCC3 |
| 196 to 198 | CCNC(=O)N1CCN(c2ccccc2C(C)(C)C)CC1 |
| 135 to 138 | O=C(Nc1cccc([N+](=O)[O-])c1)C(=O)N1CCC(Cc2ccc(F)cc2)CC1 |
| 114 to 116 | O=C(c1ccncc1)c1ccc(Cl)c([N+](=O)[O-])c1 |
| 130 to 132 | CON(C)CCN1C(=O)c2ccccc2C1=O |
| 165 to 168 | CCOC(=O)COC(=O)c1cc2c(cn1)[nH]c1ccccc12 |
| 214 to 216 | CC1(C)OC(=S)Nc2ccc(-c3coc(C#N)c3)cc21 |
| 137 to 138 | COc1ccc(C2(C#Cc3nccn3C)CCC(=O)CC2)cc1OC1CCCC1 |
| 98 to 99 | CN(C)C(=O)N1CCc2ccc(Nc3nc4c(-c5cc(Cl)ccc5OCC(F)F)cccn4n3)cc2CC1 |
| 110 | CN(C(=O)COc1cc(-c2ccccc2)nc2ccccc12)C1CCC1 |
| 54 to 57 | COC(=O)CN(CC(=O)OC)c1cccc([N+](=O)[O-])c1 |
| 145 to 147 | COc1ccc2[nH]c(SCc3nccc(N4CCCCC4)n3)nc2c1 |
| 270 | O=C(Nc1nccs1)c1c(C(F)(F)F)nc2cc(C(F)(F)F)ccc2c1O |
| 204 | Cn1cc(C#N)c(Nc2ccc([N+](=O)[O-])cc2N)n1 |
| 185 to 188 | CCC1C(=O)C2C3CCC(C(C)CCC(=O)O)C3(C)CCC2C2(C)CCC(O)CC12 (stereo unspecified) |

| melting point [°C] | SMILES |
| --- | --- |
| 181 to 184 | Cc1[nH]c2ccc(O)cc2c1C(=O)NC1CCN(CCCc2ccccc2)CC1 |
| 132 to 134 | N#Cc1ccc(-c2ccc(OC(F)(F)F)c(CNC3CCN(C(=O)CO)CC3c3ccccc3)c2)c(F)c1 (stereo unspecified) |
| 225 to 226 | Cc1ccccc1-c1c(NC(=O)Nc2ccc(F)cc2F)cnc2sc(Cl)cc12 |
| 90.5 to 91.5 | CC(C(=O)N(C)C)n1cc(Br)c(-c2ccccc2)n1 (stereo unspecified) |
| 110 to 120 | O=C(O)c1ccc(CNC(=O)[C@@H]2Cc3ccccc3N2S(=O)(=O)c2ccc(I)cc2)cc1 |
| 127 to 130 | CC(C=Cc1ccc(C(=O)O)cc1)c1ccccc1 (stereo unspecified) |
| 261 to 262 | Cc1ccc([N+](=O)[O-])c(C=C2C(=O)NC(=O)N2C)c1 |
| 235 to 236 | N=C(N)Nc1ncc(Cl)c2ccc(C(=O)NCCC(=O)O)cc12 |
| 94 to 96 | CCOn1c(C(F)(F)F)nc2c([N+](=O)[O-])cc(C(F)(F)F)cc21 |
| 214 to 218 | CCN1CNS(=O)(=O)c2cc(O)ccc21 |
| 154 to 158 | CCCCCCCOc1cc2c(cc1C(=O)c1ccc(C(=O)O)cc1)C(C)(C)CCC2(C)C |
| 127 to 128 | O=C(N[C@H]1CCN(CCc2ccc(F)cc2)C1)C1=c2ccccc2=CC=C2CC=CC=C21 |
| > 225 | COc1c(C(=O)O)csc1S(=O)(=O)Oc1ccc(-c2c3ccccc3c(Br)c3sc(C)c(C)c23)cc1C1CCCC1 |
| 109 to 111 | COc1ccc2[nH]c(S(=O)Cc3cc(N4CCOCC4)c(F)cn3)nc2c1 (stereo unspecified) |
| 123 to 126 | COc1cc(OC)nc(Oc2cccc(Cl)c2C(=O)O)n1 |
| 123 to 125 | COC(=O)c1nc(-c2ccc([Si](C)(C)C)c(F)c2F)c(F)c(N)c1OC |
| > 300 | O=[N+]([O-])c1ccc(-c2cnn3c(O)ncnc23)cc1 |
| 158 to 159 | CC(=O)Nc1ccc(N2CCC(=O)CC2)cc1 |
| 140 to 142 | CCSCCn1cc(C(=O)NCc2ccc(Cl)cc2)c(=O)c2cc(CN3CCOCC3)ccc21 |
| 160 to 161 | O=S1(=O)c2ccc(F)cc2Oc2cc(OCC(F)(F)F)ccc21 |
| 265 to 267 | CC(=O)Nc1cccc(/C=C/C(=O)O)c1C |
| 226 | CCOC(=O)c1c(C=O)c2c(Cl)cc(Cl)cc2n1S(=O)(=O)c1ccccc1 |
| 225 to 230 | O=C(NC12CC3CC(CC(C3)C1)C2)c1cc(O)c(O)cc1Cl |
| 146 to 148 | CO[C@@H]1CN(CCCOc2ccc(F)cc2)CC[C@@H]1NC(=O)c1cc(Cl)c(N)cc1O (relative stereo) |
| 97 to 105 | CCN(CC)C(=O)CC(=O)CC(=O)/C=C/c1c(C2CC2)nc2ccccc2c1-c1ccc(F)cc1 |
| 158 | CC(C)Oc1ccc(-c2cncc(OC3SCC(O)C(O)C3O)c2)cc1 (stereo unspecified) |
